# Laboratory results published in patent publication US12077503B2, “Substituted cyclic amides and their use as herbicides” (FMC CORPORATION, priority 2015, dated 2024).
# Key:
# Format in all cases: in vivo
# [1] = test system: corn (Zea mays); experiment: Test G Pre-Emergence Protocol; conditions: Zea mays, pre-emergence, 312 h, evaluated after 13 days
# Summary of the method: (§1)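 Herbicidal effect was rated 13 days post-application on a scale where 100 equals total damage. Spraying took place the day after sowing, using 15.625, 62.5 or 250 g/ha of compound in a 50:50 acetone/water solution with 0.5% Tween 20.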
# [2] = test system: giant foxtail (Setaria faberi); experiment: Test G Pre-Emergence Protocol; conditions: Setaria faberi, pre-emergence, 312 h, evaluated after 13 days
# Summary of the method: as §1
# [3] = test system: barnyardgrass (Echinochloa crus-galli); experiment: Test G Pre-Emergence Protocol; conditions: Echinochloa crus-galli, pre-emergence, 312 h, evaluated after 13 days
# Summary of the method: as §1
# [4] = test system: redroot pigweed (Amaranthus retroflexus); experiment: Test G Pre-Emergence Protocol; conditions: Amaranthus retroflexus, pre-emergence, 312 h, evaluated after 13 days
# Summary of the method: as §1
# [5] = test system: ivy-leaved morning glory (Ipomoea hederacea); experiment: Test G Pre-Emergence Protocol; conditions: Ipomoea, pre-emergence, 312 h, evaluated after 13 days
# Summary of the method: as §1
# [6] = test system: velvetleaf (Abutilon theophrasti); experiment: Test G Pre-Emergence Protocol; conditions: Abutilon theophrasti, pre-emergence, 312 h, evaluated after 13 days
# Summary of the method: as §1
# [7] = test system: corn (Zea mays); experiment: Test G Post-Emergence Protocol; conditions: Zea mays, post-emergence, 312 h
# Summary of the method: (§2)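 Values are percent visual injury at 13 days after treatment (0 none, 100 total). Treatment was a post-emergence spray at 15.625, 62.5 or 250 g/ha on 8-day-old pot plants kept at 24/16 °C.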
# [8] = test system: giant foxtail (Setaria faberi); experiment: Test G Post-Emergence Protocol; conditions: Setaria faberi, post-emergence, 312 h
# Summary of the method: as §2
# [9] = test system: barnyardgrass (Echinochloa crus-galli); experiment: Test G Post-Emergence Protocol; conditions: Echinochloa crus-galli, post-emergence, 312 h
# Summary of the method: as §2
# [10] = test system: redroot pigweed (Amaranthus retroflexus); experiment: Test G Post-Emergence Protocol; conditions: Amaranthus retroflexus, post-emergence, 312 h
# Summary of the method: as §2
# [11] = test system: ivy-leaved morning glory (Ipomoea hederacea); experiment: Test G Post-Emergence Protocol; conditions: Ipomoea, post-emergence, 312 h
# Summary of the method: as §2
# [12] = test system: velvetleaf (Abutilon theophrasti); experiment: Test G Post-Emergence Protocol; conditions: Abutilon theophrasti, post-emergence, 312 h
# Summary of the method: as §2
smiles,measurement,setting,value
Cc1c(NC(=O)[C@@H]2C(=O)N(C)C[C@H]2c2ccc(C(F)(F)F)cc2)ccnc1Cl (racemic) [Compound 1631],plant injury at 15.625 g/ha,"[1]; 15.625 g ai/ha, read-out: Corn damage rating (100=total damage to plant; 0=no damage to plant)",0%
same,plant injury at 62.5 g/ha,"[1]; 62.5 g ai/ha, 100=total damage to plant, 0=no damage to plant, read-out: plant damage rating, Corn",10%
same,plant injury at 250 g/ha,"[1]; 250 g ai/ha, read-out: Corn damage rating (100=total damage to plant; 0=no damage to plant)",0%
same,pest or weed control at 15.625 g/ha,"[2]; 15.625 g ai/ha, read-out: Foxtail, Giant damage rating (100=total damage to plant; 0=no damage to plant)",0%
same,pest or weed control at 62.5 g/ha,"[2]; 62.5 g ai/ha, 100=total damage to plant, 0=no damage to plant, read-out: plant damage rating, Foxtail, Giant",10%
same,pest or weed control at 250 g/ha,"[2]; 250 g ai/ha, read-out: Foxtail, Giant damage rating (100=total damage to plant; 0=no damage to plant)",70%
same,pest or weed control at 15.625 g/ha,"[3]; 15.625 g ai/ha, read-out: Barnyard grass damage rating (100=total damage to plant; 0=no damage to plant)",0%
same,pest or weed control at 62.5 g/ha,"[3]; 62.5 g ai/ha, 100=total damage to plant, 0=no damage to plant, read-out: plant damage rating, Barnyardgrass",0%
same,pest or weed control at 250 g/ha,"[3]; 250 g ai/ha, read-out: Barnyardgrass damage rating (100=total damage to plant; 0=no damage to plant)",0%
same,pest or weed control at 15.625 g/ha,"[4]; 15.625 g ai/ha, read-out: Pigweed, Redroot damage rating (100=total damage to plant; 0=no damage to plant)",0%
same,pest or weed control at 62.5 g/ha,"[4]; 62.5 g ai/ha, 100=total damage to plant, 0=no damage to plant, read-out: plant damage rating, Pigweed, Redroot",20%
same,pest or weed control at 250 g/ha,"[4]; 250 g ai/ha, read-out: Pigweed, Redroot damage rating (100=total damage to plant; 0=no damage to plant)",10%
same,pest or weed control at 15.625 g/ha,"[5]; 15.625 g ai/ha, read-out: Morning-glory, Ivy-leaved damage rating (100=total damage to plant; 0=no damage to plant)",0%
same,pest or weed control at 62.5 g/ha,"[5]; 62.5 g ai/ha, 100=total damage to plant, 0=no damage to plant, read-out: plant damage rating, Morningglory, Ivy-leaved",20%
same,pest or weed control at 250 g/ha,"[5]; 250 g ai/ha, read-out: Morningglory, Ivy-leaved damage rating (100=total damage to plant; 0=no damage to plant)",30%
same,pest or weed control at 15.625 g/ha,"[6]; 15.625 g ai/ha, read-out: Velvetleaf damage rating (100=total damage to plant; 0=no damage to plant)",0%
same,pest or weed control at 62.5 g/ha,"[6]; 62.5 g ai/ha, 100=total damage to plant, 0=no damage to plant, read-out: plant damage rating, Velvetleaf",0%
same,pest or weed control at 250 g/ha,"[6]; 250 g ai/ha, read-out: Velvetleaf damage rating (100=total damage to plant; 0=no damage to plant)",0%
same,plant injury at 15.625 g/ha,"[7]; 15.625 g ai/ha, evaluated after 13 days (100=total damage to plant; 0=no damage to plant), read-out: Corn damage rating",0%
same,plant injury at 62.5 g/ha,"[7]; 62.5 g ai/ha, evaluated after 13 days, read-out: Corn damage rating (100=total damage to plant; 0=no damage to plant)",0%
same,plant injury at 250 g/ha,"[7]; 250 g ai/ha, evaluated after 13 days, read-out: damage to plant, Corn (100=total damage to plant; 0=no damage to plant)",10%
same,pest or weed control at 15.625 g/ha,"[8]; 15.625 g ai/ha, evaluated after 13 days (100=total damage to plant; 0=no damage to plant), read-out: Foxtail, Giant damage rating",0%
same,pest or weed control at 62.5 g/ha,"[8]; 62.5 g ai/ha, evaluated after 13 days, read-out: Foxtail, Giant damage rating (100=total damage to plant; 0=no damage to plant)",60%
same,pest or weed control at 250 g/ha,"[8]; 250 g ai/ha, evaluated after 13 days, read-out: damage to plant, Foxtail, Giant (100=total damage to plant; 0=no damage to plant)",70%
same,pest or weed control at 15.625 g/ha,"[9]; 15.625 g ai/ha, evaluated after 13 days (100=total damage to plant; 0=no damage to plant), read-out: Barnyardgrass damage rating",0%
same,pest or weed control at 62.5 g/ha,"[9]; 62.5 g ai/ha, evaluated after 13 days, read-out: Barnyardgrass damage rating (100=total damage to plant; 0=no damage to plant)",10%
same,pest or weed control at 250 g/ha,"[9]; 250 g ai/ha, evaluated after 13 days, read-out: damage to plant, Barnyardgrass (100=total damage to plant; 0=no damage to plant)",10%
same,pest or weed control at 15.625 g/ha,"[10]; 15.625 g ai/ha, evaluated after 13 days (100=total damage to plant; 0=no damage to plant), read-out: Pigweed, Redroot damage rating",0%
same,pest or weed control at 62.5 g/ha,"[10]; 62.5 g ai/ha, evaluated after 13 days, read-out: Pigweed, Redroot damage rating (100=total damage to plant; 0=no damage to plant)",20%
same,pest or weed control at 250 g/ha,"[10]; 250 g ai/ha, evaluated after 13 days, read-out: damage to plant, Pigweed, Redroot (100=total damage to plant; 0=no damage to plant)",20%
same,pest or weed control at 15.625 g/ha,"[11]; 15.625 g ai/ha, evaluated after 13 days (100=total damage to plant; 0=no damage to plant), read-out: Morningglory, Ivy-leaved damage rating",0%
same,pest or weed control at 62.5 g/ha,"[11]; 62.5 g ai/ha, evaluated after 13 days, read-out: Morningglory, Ivy-leaved damage rating (100=total damage to plant; 0=no damage to plant)",20%
same,pest or weed control at 250 g/ha,"[11]; 250 g ai/ha, evaluated after 13 days, read-out: damage to plant, Morningglory, Ivy-leaved (100=total damage to plant; 0=no damage to plant)",20%
same,pest or weed control at 15.625 g/ha,"[12]; 15.625 g ai/ha, evaluated after 13 days (100=total damage to plant; 0=no damage to plant), read-out: Velvetleaf damage rating",0%
same,pest or weed control at 62.5 g/ha,"[12]; 62.5 g ai/ha, evaluated after 13 days, read-out: Velvetleaf damage rating (100=total damage to plant; 0=no damage to plant)",10%
same,pest or weed control at 250 g/ha,"[12]; 250 g ai/ha, evaluated after 13 days, read-out: damage to plant, Velvetleaf (100=total damage to plant; 0=no damage to plant)",0%
